Results as given in ChEMBL document CHEMBL5584240, “Evaluation of potency and metabolic stability of diphyllin-derived Vacuolar-ATPase inhibitors” (Eur J Med Chem, 2024).
The source made the active and inactive calls. The rule behind the calls is not given here.

What was measured:
[1] = tested on: Ebolavirus; assay: Antiviral activity against recombinant Ebola virus Mayinga expressing GFP infected in human HeLa cells with ATP6V0a2 KO assessed as reduction in viral entry into cells pretreated for 1 hr followed by viral infection measured after 24 to 48 hrs by imaging analysis; assay type: functional, organism-based; details: Orthoebolavirus
[2] = Selectivity index, ratio of CC50 for HEK293 cells to EC50 for recombinant Ebola virus Mayinga expressing GFP infected in human HeLa cells with ATP6V0a2 KO; assay type: toxicity, cell-based; details: read-out: Ratio CC50/EC50
[3] = tested on: HEK293; assay: Cytotoxicity against HEK293 cells incubated for 72 hrs by MTT assay; assay type: toxicity, cell-based; details: human, hek293, 72 h
[4] = molecular target: Voltage-gated inwardly rectifying potassium channel KCNH2 (Homo sapiens, UniProt Q12809); assay: Inhibition of hERG at 10 uM relative to control; assay type: toxicity
[5] = tested on: A549; assay: Induction of phospholipidosis in NBD-PE-treated human A549 cells at 5 to 10 uM incubated for 24 hrs by imaging based analysis; assay type: functional, cell-based; details: dose 5-10 µM
[6] = tested on: Ebolavirus; assay: Antiviral activity against recombinant Ebola virus Mayinga expressing GFP infected in human primary macrophages assessed as reduction in infectivity pretreated for 1 hr followed by viral infection measured after 24 to 48 hrs by imaging analysis; assay type: functional, organism-based; details: Orthoebolavirus, Primary macrophage
[7] = Selectivity index, ratio of CC50 for human primary macrophages to EC50 for recombinant Ebola virus Mayinga expressing GFP infected in human primary macrophages; assay type: toxicity; details: read-out: Ratio CC50/EC50
[8] = Half life in CD-1 mouse at 50 mg/kg, po by LC-MS/MS analysis; assay type: ADME, organism-based; details: in vivo
[9] = Tmax in CD-1 mouse at 50 mg/kg, po by LC-MS/MS analysis; assay type: ADME, organism-based; details: in vivo
[10] = Cmax in CD-1 mouse at 50 mg/kg, po by LC-MS/MS analysis; assay type: ADME, organism-based; details: in vivo
[11] = AUC (0.25 to 24 hrs) in CD-1 mouse at 50 mg/kg, po by LC-MS/MS analysis; assay type: ADME, organism-based; details: in vivo
[12] = AUC (infinity) in CD-1 mouse at 50 mg/kg, po by LC-MS/MS analysis; assay type: ADME, organism-based; details: in vivo
[13] = Apparent volume of distribution during terminal phase in CD-1 mouse at 50 mg/kg, po by LC-MS/MS analysis; assay type: ADME, organism-based; details: in vivo, read-out: Vz/F
[14] = Apparent oral clearance in CD-1 mouse at 50 mg/kg, po by LC-MS/MS analysis; assay type: ADME, organism-based; details: in vivo
[15] = MRT in CD-1 mouse at 50 mg/kg, po by LC-MS/MS analysis; assay type: ADME, organism-based; details: in vivo
[16] = tested on: A549; assay: Induction of phospholipidosis in NBD-PE-treated human A549 cells at 1 uM incubated for 24 hrs by imaging based analysis; assay type: functional, cell-based

Chain of Voltage-gated inwardly rectifying potassium channel KCNH2 (Q12809 whole entry): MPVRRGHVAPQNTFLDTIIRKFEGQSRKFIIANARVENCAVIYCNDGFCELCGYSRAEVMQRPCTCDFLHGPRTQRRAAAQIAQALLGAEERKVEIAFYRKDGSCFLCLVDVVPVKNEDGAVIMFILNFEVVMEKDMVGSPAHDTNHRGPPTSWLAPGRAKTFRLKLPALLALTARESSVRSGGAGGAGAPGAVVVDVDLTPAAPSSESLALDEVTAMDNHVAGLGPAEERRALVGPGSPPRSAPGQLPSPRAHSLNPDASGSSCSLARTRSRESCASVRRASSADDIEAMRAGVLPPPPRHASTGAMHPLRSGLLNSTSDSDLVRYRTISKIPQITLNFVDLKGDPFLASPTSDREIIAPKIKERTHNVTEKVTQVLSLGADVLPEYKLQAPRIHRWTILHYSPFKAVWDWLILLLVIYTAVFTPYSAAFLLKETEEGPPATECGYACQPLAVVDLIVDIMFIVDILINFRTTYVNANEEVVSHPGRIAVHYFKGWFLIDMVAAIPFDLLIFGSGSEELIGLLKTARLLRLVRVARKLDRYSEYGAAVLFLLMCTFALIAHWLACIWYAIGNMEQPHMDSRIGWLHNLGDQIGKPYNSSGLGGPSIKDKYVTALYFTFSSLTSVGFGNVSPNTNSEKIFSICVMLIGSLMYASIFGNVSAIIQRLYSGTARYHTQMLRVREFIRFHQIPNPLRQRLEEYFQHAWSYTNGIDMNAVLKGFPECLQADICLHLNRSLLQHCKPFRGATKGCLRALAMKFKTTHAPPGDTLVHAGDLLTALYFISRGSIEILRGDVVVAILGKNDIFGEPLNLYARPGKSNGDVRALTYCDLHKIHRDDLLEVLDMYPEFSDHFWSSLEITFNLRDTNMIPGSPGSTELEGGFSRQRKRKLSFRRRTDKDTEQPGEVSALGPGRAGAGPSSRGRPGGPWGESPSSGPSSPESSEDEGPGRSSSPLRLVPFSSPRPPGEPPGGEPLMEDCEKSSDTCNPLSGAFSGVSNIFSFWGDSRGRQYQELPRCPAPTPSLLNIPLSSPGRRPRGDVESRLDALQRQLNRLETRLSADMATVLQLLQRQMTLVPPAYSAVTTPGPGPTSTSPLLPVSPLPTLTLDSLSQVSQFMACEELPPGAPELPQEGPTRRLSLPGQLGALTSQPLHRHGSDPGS

| SMILES | EC50 [1] | selectivity ratio [2] | CC50 [3] | inhibition (INH) [4] | also measured |
| --- | --- | --- | --- | --- | --- |
| COc1cc2c(OC3CCOCC3)c3c(c(-c4ccc5c(c4)OCO5)c2cc1OC)C(=O)OC3 | 124 nM | 43 | > 80000 nM | 36% |  |
| COc1cc2c(OCCCN3CCOCC3)c3c(c(-c4ccc5c(c4)OCO5)c2cc1OC)C(=O)OC3 | 95 nM | > 230 | > 80000 nM | 11% |  |
| COc1cc2c(OCCCN3CC4CCC(C3)O4)c3c(c(-c4ccc5c(c4)OCO5)c2cc1OC)C(=O)OC3 | 127 nM | > 190 | > 80000 nM | 22% |  |
| COC(=O)N1CCN(CC(O)COc2c3c(c(-c4ccc5c(c4)OCO5)c4cc(OC)c(OC)cc24)C(=O)OC3)CC1 (stereo unspecified) | 41 nM | > 740 | > 80000 nM | 23% |  |
| COC(=O)N1CCN(CCCOc2c3c(c(-c4ccc5c(c4)OCO5)c4cc(OC)c(OC)cc24)C(=O)OC3)CC1 | 22 nM | > 110 | > 80000 nM | 30% |  |
| COc1cc2c(OCCCN3CC4CC3CN4C)c3c(c(-c4ccc5c(c4)OCO5)c2cc1OC)C(=O)OC3 (stereo unspecified) | 116 nM | > 210 | > 80000 nM | 72% |  |
| COc1cc2c(OCCCN3CCN(C(C)=O)CC3)c3c(c(-c4ccc5c(c4)OCO5)c2cc1OC)C(=O)OC3 | 42 nM | > 590 | > 80000 nM | 11% |  |
| COc1cc2c(OCCCN3CCNC(=O)C3)c3c(c(-c4ccc5c(c4)OCO5)c2cc1OC)C(=O)OC3 | 441 nM |  | > 80000 nM | 5% |  |
| CCCCc1oc2ccccc2c1C(=O)c1cc(I)c(OCCN(CC)CC)c(I)c1 |  |  |  |  | Activity [5]: Active |
| COc1cc2c(OCCN3CCN(C)CC3)c3c(c(-c4ccc5c(c4)OCO5)c2cc1OC)C(=O)OC3 | 36 nM | 300 | > 80000 nM | 79% | EC50 [6]: 30 nM; selectivity ratio [7]: 170 |
| COc1cc2c(OC3CNC3)c3c(c(-c4ccc5c(c4)OCO5)c2cc1OC)C(=O)OC3 | 214 nM | > 150 | > 80000 nM | 89% |  |
| COc1cc2c(OC3CCNCC3)c3c(c(-c4ccc5c(c4)OCO5)c2cc1OC)C(=O)OC3 | 32 nM | 510 | > 80000 nM | 80% | t1/2 [8]: 86.2 h; Tmax [9]: 2 h; Cmax [10]: 151 nM; AUC(0-t) [11]: 0.636 µM·h; AUC [12]: 2.532 µM·h; Vd/F [13]: 105 L; CL/F [14]: 14.1 mL/min; MRT [15]: 113 h |
| COc1cc2c(OCCCN3[C@@H]4CC[C@H]3CN(C)C4)c3c(c(-c4ccc5c(c4)OCO5)c2cc1OC)C(=O)OC3 | 18 nM | > 940 | 71000 nM | 72% | EC50 [6]: 25 nM; selectivity ratio [7]: 313 |
| COc1cc2c(OCCCN3CC4CC3CO4)c3c(c(-c4ccc5c(c4)OCO5)c2cc1OC)C(=O)OC3 (stereo unspecified) | 48 nM | > 660 | 52000 nM | 73% |  |
| COCCN1CCN(CC(O)COc2c3c(c(-c4ccc5c(c4)OCO5)c4cc(OC)c(OC)cc24)C(=O)OC3)CC1 (stereo unspecified) | 44 nM | > 580 |  | 51% |  |
| COc1cc2c(OCCCN3CCN(C)CC3)c3c(c(-c4ccc5c(c4)OCO5)c2cc1OC)C(=O)OC3 | 7 nM | > 630 | 12000 nM | 75% |  |
| COc1cc2c(O[C@@H]3O[C@H](C)[C@@H](O)[C@H](O)[C@H]3O)c3c(c(-c4ccc5c(c4)OCO5)c2cc1OC)C(=O)OC3 [PATENTIFLORIN A] | 428 nM | > 59 | > 80000 nM | < 5% | EC50 [6]: 85 nM; selectivity ratio [7]: 295; Tmax [9]: 0.25 h; Cmax [10]: 101 nM |
| COc1cc2c(OCC(O)CN3CC4CCC(C3)N4C)c3c(c(-c4ccc5c(c4)OCO5)c2cc1OC)C(=O)OC3 (stereo unspecified) | 7 nM | 2000 | > 80000 nM | 99% |  |

| SMILES | EC50 [1] | selectivity ratio [2] | CC50 [3] | inhibition (INH) [4] | also measured |
| --- | --- | --- | --- | --- | --- |
| COc1cc2c(OCCCN3CC4CCC3CO4)c3c(c(-c4ccc5c(c4)OCO5)c2cc1OC)C(=O)OC3 (stereo unspecified) | 28 nM | > 1200 | 80000 nM | 54% | EC50 [6]: 19 nM; selectivity ratio [7]: 319 |
| COc1cc2c(OCCCC#N)c3c(c(-c4ccc5c(c4)OCO5)c2cc1OC)C(=O)OC3 | 37 nM | 130 | > 80000 nM | 24% | t1/2 [8]: 6.4 h; Tmax [9]: 0.5 h; Cmax [10]: 3560 nM; AUC(0-t) [11]: 6.86 µM·h; AUC [12]: 7.191 µM·h; Vd/F [13]: 2.85 L; CL/F [14]: 5.18 mL/min; MRT [15]: 5.9 h |
| CO/C1=C\C(C)=C\[C@@H](C)[C@@H](O)[C@@H](C)C/C(C)=C/C=C/[C@H](OC)[C@@H]([C@@H](C)[C@@H](O)[C@H](C)[C@@]2(O)C[C@@H](O)[C@H](C)[C@@H](C(C)C)O2)OC1=O [BAFILOMYCIN A1] | 3 nM | 470 | 37000 nM |  |  |
| COc1cc2c(OCCCN3CCN(C=O)CC3)c3c(c(-c4ccc5c(c4)OCO5)c2cc1OC)C(=O)OC3 | 31 nM | > 610 | > 80000 nM | 34% |  |
| COc1cc2c(OCC(O)CN3CCOCC3)c3c(c(-c4ccc5c(c4)OCO5)c2cc1OC)C(=O)OC3 (stereo unspecified) | 157 nM | > 160 | > 80000 nM | 16% |  |
| COc1cc2c(OCCCN3CC4CCC(C3)N4C)c3c(c(-c4ccc5c(c4)OCO5)c2cc1OC)C(=O)OC3 | 10 nM | > 3400 | > 80000 nM | 100% | EC50 [6]: 10 nM; selectivity ratio [7]: 577 |
| COc1cc2c(OC3COC3)c3c(c(-c4ccc5c(c4)OCO5)c2cc1OC)C(=O)OC3 | 318 nM | > 79 | 72000 nM | 15% |  |
| COc1cc2c(OCC#N)c3c(c(-c4ccc5c(c4)OCO5)c2cc1OC)C(=O)OC3 | 182 nM | > 140 | > 80000 nM | 6% |  |
| COc1cc2c(OCCCN3CCN(C)C(=O)C3)c3c(c(-c4ccc5c(c4)OCO5)c2cc1OC)C(=O)OC3 | 74 nM | > 340 | > 80000 nM | 9% | Activity [16]: inactive; EC50 [6]: 167 nM; selectivity ratio [7]: > 150 |
| COc1cc2c(OCCCN3CC4CCC3CN4C)c3c(c(-c4ccc5c(c4)OCO5)c2cc1OC)C(=O)OC3 (stereo unspecified) | 26 nM | > 1020 | 54000 nM | 90% | EC50 [6]: 2 nM; selectivity ratio [7]: 3240 |
| COc1cc2c(OCCCN3CCN(S(C)(=O)=O)CC3)c3c(c(-c4ccc5c(c4)OCO5)c2cc1OC)C(=O)OC3 | 35 nM | > 550 | > 80000 nM | 16% |  |
| COc1cc2c(OCCN3CCOCC3)c3c(c(-c4ccc5c(c4)OCO5)c2cc1OC)C(=O)OC3 | 651 nM | > 38 | > 80000 nM |  |  |
| COc1cc2c(OC3CCOC3)c3c(c(-c4ccc5c(c4)OCO5)c2cc1OC)C(=O)OC3 (stereo unspecified) | 40 nM | 87 | > 80000 nM | 30% | EC50 [6]: 107 nM; selectivity ratio [7]: 132; t1/2 [8]: 13.5 h; Tmax [9]: 0.5 h; Cmax [10]: 1250 nM; AUC(0-t) [11]: 12 µM·h; AUC [12]: 16.455 µM·h; Vd/F [13]: 2.63 L; CL/F [14]: 2.25 mL/min; MRT [15]: 18 h |
| COc1cc2c(OCCCN3[C@@H]4CC[C@H]3COC4)c3c(c(-c4ccc5c(c4)OCO5)c2cc1OC)C(=O)OC3 | 143 nM | > 190 | > 80000 nM | 76% |  |
| COc1cc2c(OCCCN3CCS(=O)(=O)CC3)c3c(c(-c4ccc5c(c4)OCO5)c2cc1OC)C(=O)OC3 | 117 nM | > 240 | > 80000 nM | 21% | Activity [16]: inactive; EC50 [6]: 180 nM; selectivity ratio [7]: 138 |
| COc1cc2c(OCC(O)CN3CCN(C)CC3)c3c(c(-c4ccc5c(c4)OCO5)c2cc1OC)C(=O)OC3 (stereo unspecified) | 54 nM | > 420 | > 80000 nM | 36% | EC50 [6]: 33 nM; selectivity ratio [7]: > 753 |
| COc1cc2c(OC3CCNC3)c3c(c(-c4ccc5c(c4)OCO5)c2cc1OC)C(=O)OC3 (stereo unspecified) | 86 nM | 300 | > 80000 nM | 97% |  |
